In patent US8202910B2 (Sequella, Inc., priority 2006, dated 2012):
Values after ≈ are worked out from the molar mass of the structure shown. Where two headings read alike, the source gives them in different places.

Experiments:
[1] = system: RIF^R M. tuberculosis isolate 3185; assay: microbe, parasite or virus in culture; assay type: cell-based; details: for concentration to which the strain was susceptible: strain 3185
[2] = system: RIF^R M. tuberculosis isolate 2482; assay: microbe, parasite or virus in culture; assay type: cell-based; details: for concentration to which the strain was susceptible: strain 2482; for MIC (BACTEC): Strain 2482
M. tuberculosis H37Rv [3] = assay: In vivo efficacy, mice infected i.v. with M. tuberculosis, CFU in spleen and lungs; parameters: species or system C57BL/6 mice
[4] = system: H37Rv strain of Mycobacterium tuberculosis; assay: microbe, parasite or virus in culture; assay type: cell-based; details: Mycobacterium tuberculosis, H37RV; read-out: MIC
M. tuberculosis H37Rv [5] = assay: MIC by BACTEC 460; assay type: cell-based, Mycobacterium tuberculosis; details: for MIC: Mycobacterium tuberculosis, H37RV, read-out: MIC (BACTEC)
M. tuberculosis H37Rv [6] = assay: Standard chronic mouse model of tuberculosis, CFU in lung; assay type: in vivo, C57BL/6 female mice; details: RIF (20 mg/kg) by itself, 4 week therapy
[7] = system: M. tuberculosis H37Rv (Pasteur); assay: Rapid in vivo model of TB, body weight of infected mice; parameters: species or system C3H female mice; details: single drug alone (SQ109 10 mg/kg; RIF 2 mg/kg), by the 3 wk
wild type of M.tb = assay: MIC, secondary screening, wild type; assay type: cell-based, Mycobacterium tuberculosis; details: Mycobacterium tuberculosis, WT
[8] = Mycobacterium tuberculosis, read-out: MIC (BACTEC)

Compound: NNC(=O)c1ccncc1 [INH, Isoniazid]
- concentration to which the strain was susceptible [1]: 0.1 mg/L
- concentration to which the strain was susceptible [2]: 0.1 mg/L
- activity in spleen and lung, rank among drugs (M. tuberculosis H37Rv [3]; INH 25 mg/kg): the most active drug in both spleen and lung
- decrease of load of bacteria in organs (M. tuberculosis H37Rv [3]; during 4-6 weeks of chemotherapy): 2-3 logs
- MIC [4]: 0.91 µM (≈ 0.125 µg/mL)
- MIC (M. tuberculosis H37Rv [5]): 0.025 µg/mL (≈ 0.182 µM)

Compound: CO[C@H]1/C=C/O[C@@]2(C)Oc3c(C)c(O)c4c(O)c(c(/C=N/N5CCN(C)CC5)c(O)c4c3C2=O)NC(=O)/C(C)=C\C=C\[C@H](C)[C@H](O)[C@@H](C)[C@@H](O)[C@@H](C)[C@H](OC(C)=O)[C@@H]1C [RIF, Rifampicin]
- CFU in lung (M. tuberculosis H37Rv [6]): 5.8 log10
- MIC [1, 8]: 24 µg/mL (≈ 29.2 µM)
- MIC (BACTEC) ([1]; isolate 3185): 24 µg/mL (≈ 29.2 µM)
- MIC [2, 8]: > 100 µg/mL
- MIC (BACTEC) ([2]; listed as Rifampicin): > 100 µg/mL
- MIC (BACTEC) ([2]; listed as rifampicin): > 100 µg/mL
- average weight [7]: 19.7 g
- MIC (BACTEC) (M. tuberculosis H37Rv [5]; H37Rv): 0.17 µg/mL (≈ 0.207 µM)
- MIC (M. tuberculosis H37Rv [5]): 0.2 µg/mL (≈ 0.243 µM)

Compound: CC1(C)C2CCC(CNCCNCC(c3ccccc3)c3ccccc3)[C@@H]1C2 (some centres unmarked) [RL 241]
- MIC (wild type of M.tb; value in brackets, read-out: MIC (or uM)): 3.34 µM
- MIC (wild type of M.tb; EMB, RL241, Cmpd#59 as 2HCl salt, Cmpd#109 as 2CF3COOH salt, read-out: MIC): 1.5 µg/mL

Compound: [H]/N=C(/N)N[C@H]1[C@H](O)[C@@H](O)[C@H](O[C@@H]2O[C@@H](C)[C@](O)(C=O)[C@H]2O[C@@H]2O[C@@H](CO)[C@H](O)[C@@H](O)[C@@H]2NC)[C@@H](N/C(N)=N\[H])[C@@H]1O [SM, Streptomycin]
- concentration to which the strain was susceptible [1]: 2 mg/L
- concentration to which the strain was susceptible [2]: 2 mg/L
- MIC (M. tuberculosis H37Rv [5]): 0.25 µg/mL (≈ 0.43 µM)
